Test system: HCT116 MTAP-deleted cell lines
Assay: Cell viability assay (CellTiter-Glo, 7 days), HCT116 MTAP-deleted
Type: cell-based
Conditions: Homo sapiens, HCT-116; cell viability assay, HCT116 MTAP-deleted; class symbols; read-out: CC50
How it was run: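 Dose-response, PRMT5 inhibitors from DMSO serial dilution, pre-spotted; cells seeded onto compound plates. 7 d, 37 °C/5% CO2/90% RH. Readout: CTG luminescence → CC50.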

Question: How did the CC50 turn out when `CN(Cc1ccn(-c2ccccc2)n1)C(=O)c1cc2c(cc1F)nc(N)c1cncn12` [Ff-454, 4-amino-7-fluoro-N-methyl-N-((1-phenyl-1H-pyrazol-3-yl)methyl)imidazo[1,5-a]quinoxaline-8-carboxamide] was run?
Answer: Its CC50 is 100 to 1000 nM.

Question: How did the CC50 turn out when `CN(C(=O)c1cc2c(cc1F)nc(N)c1cncn12)[C@@H]1COc2c(Br)cccc21` [Ff-455, (S)-4-amino-N-(7-bromo-2,3-dihydrobenzofuran-3-yl)-7-fluoro-N-methylimidazo[1,5-a]quinoxaline-8-carboxamide] was run?
Answer: Its CC50 is 100 to 1000 nM.

Question: `CN(C(=O)c1cc2c(cc1F)nc(N)c1cncn12)C1CSc2ccccc21` (stereo not drawn) [Ff-456, 4-amino-N-(2,3-dihydrobenzo[b]thiophen-3-yl)-7-fluoro-N-methylimidazo[1,5-a]quinoxaline-8-carboxamide] was tested. Which CC50 did it give?
Answer: The CC50 was 100 to 1000 nM.

Question: For `CN(C(=O)c1cc2c(cc1F)nc(N)c1cncn12)[C@@H]1COc2ccc(Br)cc21` [Ff-457, (S)-4-amino-N-(5-bromo-2,3-dihydrobenzofuran-3-yl)-7-fluoro-N-methylimidazo[1,5-a]quinoxaline-8-carboxamide], which CC50 is on record?
Answer: Its CC50 is under 100 nM.

Question: With `CN(C(=O)c1cc2c(cc1F)nc(N)c1cncn12)C1COc2ccc(C(F)(F)F)cc21` (stereo not drawn) [Ff-458, 4-amino-7-fluoro-N-methyl-N-(5-(trifluoromethyl)-2,3-dihydrobenzofuran-3-yl)imidazo[1,5-a]quinoxaline-8-carboxamide] as the compound, how does the CC50 read?
Answer: Its CC50 is under 100 nM.

Question: `CN(C(=O)c1cc2c(cc1F)nc(N)c1cncn12)C1COc2cc3c(cc21)CCC3` (stereo not drawn) [Ff-459, 4-amino-7-fluoro-N-methyl-N-(3,5,6,7-tetrahydro-2H-indeno[5,6-b]furan-3-yl)imidazo[1,5-a]quinoxaline-8-carboxamide] was tested. Which CC50 did it give?
Answer: Its CC50 is under 100 nM.

Question: With `Cc1cc2c(cc1Br)[C@H](N(C)C(=O)c1cc3c(cc1F)nc(N)c1cncn13)CO2` [Ff-460, (S)-4-amino-N-(5-bromo-6-methyl-2,3-dihydrobenzofuran-3-yl)-7-fluoro-N-methylimidazo[1,5-a]quinoxaline-8-carboxamide] as the compound, how does the CC50 read?
Answer: The CC50 was under 100 nM.

Question: How did the CC50 turn out when `Nc1nc2cc(F)c(C(=O)N3CCO[C@@H]4Cc5cc(Cl)ccc5[C@@H]43)cc2n2cncc12` [Ff-461, (4-amino-7-fluoroimidazo[1,5-a]quinoxalin-8-yl)((4aS,9aR)-7-chloro-2,3,9,9a-tetrahydroindeno[2,1-b][1,4]oxazin-4(4aH)-yl)methanone] was run?
Answer: Its CC50 is under 100 nM.

Question: With `CN(C(=O)c1cc2c(cc1F)nc(N)c1cncn12)[C@@H]1COc2cc(C3CC(C#N)C3)ccc21` (stereo partly drawn) [Ff-465, (S)-4-amino-N-(6-(3-cyanocyclobutyl)-2,3-dihydrobenzofuran-3-yl)-7-fluoro-N-methylimidazo[1,5-a]quinoxaline-8-carboxamide] as the compound, how does the CC50 read?
Answer: Its CC50 is under 100 nM.

Question: For `Cc1ncc2c(N)nc3cnc(C(=O)N(C)[C@@H]4COc5cc(C67CC(C6)C7)ccc54)cc3n12` [Ff-466, (S)-4-amino-N-(6-(bicyclo[1.1.1]pentan-1-yl)-2,3-dihydrobenzofuran-3-yl)-N,1-dimethylimidazo[1,5-a]pyrido[3,4-e]pyrazine-8-carboxamide], which CC50 is on record?
Answer: Its CC50 is under 100 nM.

Question: `CC1(N(Cc2ccc(C(F)(F)F)cn2)C(=O)c2cc3c(cc2F)nc(N)c2cncn23)CC1` [Ff-468, 4-amino-7-fluoro-N-(1-methylcyclopropyl)-N-((5-(trifluoromethyl)pyridin-2-yl)methyl)imidazo[1,5-a]quinoxaline-8-carboxamide] was tested. Which CC50 did it give?
Answer: The CC50 was under 100 nM.

Question: Which CC50 does the source give for `CN(C(=O)c1cc2c(cc1F)nc(N)c1cncn12)[C@@H]1COc2cc(-c3cnn(-c4ccccc4)c3)ccc21` [Ff-472, (S)-4-amino-7-fluoro-N-methyl-N-(6-(1-phenyl-1H-pyrazol-4-yl)-2,3-dihydrobenzofuran-3-yl)imidazo[1,5-a]quinoxaline-8-carboxamide] here?
Answer: The CC50 was under 100 nM.

Question: `CN(C(=O)c1cc2c(cc1F)nc(N)c1cncn12)[C@@H]1COc2cc(C3CC3(C)C)ccc21` (stereo partly drawn) [Ff-475, 4-amino-N-((3S)-6-(2,2-dimethylcyclopropyl)-2,3-dihydrobenzofuran-3-yl)-7-fluoro-N-methylimidazo[1,5-a]quinoxaline-8-carboxamide] was tested. Which CC50 did it give?
Answer: The CC50 was under 100 nM.

Question: With `CN(C(=O)c1cc2c(cc1F)nc(N)c1cncn12)[C@@H]1COc2cc(C3CC34CCC4)ccc21` (stereo partly drawn) [Ff-476, 4-amino-7-fluoro-N-methyl-N-((3S)-6-(spiro[2.3]hexan-1-yl)-2,3-dihydrobenzofuran-3-yl)imidazo[1,5-a]quinoxaline-8-carboxamide] as the compound, how does the CC50 read?
Answer: Its CC50 is 100 to 1000 nM.

Question: Which CC50 does the source give for `CN(C(=O)c1cc2c(cc1F)nc(N)c1cncn12)[C@@H]1COc2cc([C@@H]3C[C@H]3c3ccn(C(F)F)n3)ccc21` [Ff-477, 4-amino-N—((S)-6-((1R,2R)-2-(1-(difluoromethyl)-1H-pyrazol-3-yl)cyclopropyl)-2,3-dihydrobenzofuran-3-yl)-7-fluoro-N-methylimidazo[1,5-a]quinoxaline-8-carboxamide] here?
Answer: The CC50 was under 100 nM.

Question: With `C=C(C)c1ccc2c(c1)OC[C@H]2N(C)C(=O)c1cc2c(cc1F)nc(N)c1cncn12` [Ff-478, (S)-4-amino-7-fluoro-N-methyl-N-(6-(prop-1-en-2-yl)-2,3-dihydrobenzofuran-3-yl)imidazo[1,5-a]quinoxaline-8-carboxamide] as the compound, how does the CC50 read?
Answer: The CC50 was under 100 nM.

Question: For `CC(C)c1ccc2c(c1)OC[C@H]2N(C)C(=O)c1cc2c(cc1F)nc(N)c1cncn12` [Ff-479, (S)-4-amino-7-fluoro-N-(6-isopropyl-2,3-dihydrobenzofuran-3-yl)-N-methylimidazo[1,5-a]quinoxaline-8-carboxamide], which CC50 is on record?
Answer: Its CC50 is under 100 nM.

Question: How did the CC50 turn out when `CN(C(=O)c1cc2c(cc1F)nc(N)c1cncn12)[C@@H]1COc2cc(C3=CCOC3)ccc21` [Ff-483, (S)-4-amino-N-(6-(2,5-dihydrofuran-3-yl)-2,3-dihydrobenzofuran-3-yl)-7-fluoro-N-methylimidazo[1,5-a]quinoxaline-8-carboxamide] was run?
Answer: Its CC50 is under 100 nM.

Question: For `CN(C(=O)c1cc2c(cc1F)nc(N)c1cncn12)[C@@H]1COc2cc(C3=CCOC3(C)C)ccc21` [Ff-485, (S)-4-amino-N-(6-(2,2-dimethyl-2,5-dihydrofuran-3-yl)-2,3-dihydrobenzofuran-3-yl)-7-fluoro-N-methylimidazo[1,5-a]quinoxaline-8-carboxamide], which CC50 is on record?
Answer: Its CC50 is under 100 nM.

Question: `CN(C(=O)c1cc2c(cc1F)nc(N)c1cncn12)[C@@H]1COc2cc(C3CCOC3(C)C)ccc21` (stereo partly drawn) [Ff-486, 4-amino-N-((3S)-6-(2,2-dimethyltetrahydrofuran-3-yl)-2,3-dihydrobenzofuran-3-yl)-7-fluoro-N-methylimidazo[1,5-a]quinoxaline-8-carboxamide] was tested. Which CC50 did it give?
Answer: Its CC50 is under 100 nM.

Question: Which CC50 does the source give for `Nc1nc2cc(Cl)c(C(=O)N3CC[C@@H]4C[C@H]3c3ccc(Cl)cc34)cc2n2cncc12` [Ff-487, (4-amino-7-chloroimidazo[1,5-a]quinoxalin-8-yl)((1S,5R)-7-chloro-1,3,4,5-tetrahydro-2H-1,5-methanobenzo[c]azepin-2-yl)methanone] here?
Answer: Its CC50 is 100 to 1000 nM.

Question: `Nc1nc2cc(Cl)c(C(=O)N3CC[C@H]4C[C@@H]3c3c(F)cc(Cl)cc34)cc2n2cncc12` [Ff-488, (4-amino-7-chloroimidazo[1,5-a]quinoxalin-8-yl)((1R,5S)-7-chloro-9-fluoro-1,3,4,5-tetrahydro-2H-1,5-methanobenzo[c]azepin-2-yl)methanone] was tested. Which CC50 did it give?
Answer: The CC50 was 100 to 1000 nM.

Question: How did the CC50 turn out when `Nc1nc2cc(Cl)c(C(=O)N3CC[C@H]4C[C@@H]3c3ccc(Cl)c(F)c34)cc2n2cncc12` [Ff-489, (4-amino-7-chloroimidazo[1,5-a]quinoxalin-8-yl)((1R,5S)-7-chloro-6-fluoro-1,3,4,5-tetrahydro-2H-1,5-methanobenzo[c]azepin-2-yl)methanone] was run?
Answer: Its CC50 is 100 to 1000 nM.

Question: With `CN(C(=O)c1cc2c(cc1C#N)nc(N)c1cncn12)[C@@H]1COc2cc(C(F)(F)F)ccc21` [Ff-490, (S)-4-amino-7-cyano-N-methyl-N-(6-(trifluoromethyl)-2,3-dihydrobenzofuran-3-yl)imidazo[1,5-a]quinoxaline-8-carboxamide] as the compound, how does the CC50 read?
Answer: Its CC50 is under 100 nM.

Question: For `Cc1ncn2c1c(N)nc1cc(Cl)c(C(=O)N(C)[C@@H]3COc4cc(C(F)(F)F)ccc43)cc12` [Ff-492, (S)-4-amino-7-chloro-N,3-dimethyl-N-(6-(trifluoromethyl)-2,3-dihydrobenzofuran-3-yl)imidazo[1,5-a]quinoxaline-8-carboxamide], which CC50 is on record?
Answer: Its CC50 is under 100 nM.

Question: `[2H]C([2H])([2H])c1ncn2c1c(N)nc1cc(F)c(C(=O)N(C)[C@@H]3COc4cc(C(F)(F)F)ccc43)cc12` [Ff-497, (S)-4-amino-7-fluoro-N-methyl-3-(methyl-d3)-N-(6-(trifluoromethyl)-2,3-dihydrobenzofuran-3-yl)imidazo[1,5-a]quinoxaline-8-carboxamide] was tested. Which CC50 did it give?
Answer: Its CC50 is under 100 nM.

Question: With `Cc1ncn2c1c(N)nc1cnc(C(=O)N3C[C@H](C)O[C@@H]4Cc5cc(C(F)(F)F)ccc5[C@@H]43)cc12` [Ff-498, (4-amino-3-methylimidazo[1,5-a]pyrido[3,4-e]pyrazin-8-yl)((2S,4aS,9aR)-2-methyl-7-(trifluoromethyl)-2,3,9,9a-tetrahydroindeno[2,1-b][1,4]oxazin-4(4aH)-yl)methanone] as the compound, how does the CC50 read?
Answer: The CC50 was under 100 nM.

Question: `C[C@@H]1C[C@@H]2Oc3cc(OC(F)(F)F)ccc3[C@@H]2N(C(=O)c2cc3c(cc2F)nc(N)c2cncn23)C1` [Ff-500, (4-amino-7-fluoroimidazo[1,5-a]quinoxalin-8-yl)((3R,4aS,9bS)-3-methyl-7-(trifluoromethoxy)-3,4,4a,9b-tetrahydrobenzofuro[3,2-b]pyridin-1(2H)-yl)methanone] was tested. Which CC50 did it give?
Answer: The CC50 was under 100 nM.

Question: How did the CC50 turn out when `CN(C(=O)c1cc2c(cc1F)nc(N)c1cncn12)[C@@H]1COc2cc(C(F)(F)F)c(F)cc21` [Ff-503, (S)-4-amino-7-fluoro-N-(5-fluoro-6-(trifluoromethyl)-2,3-dihydrobenzofuran-3-yl)-N-methylimidazo[1,5-a]quinoxaline-8-carboxamide] was run?
Answer: The CC50 was under 100 nM.

Question: `C#Cc1ccc2c(c1)OC[C@H]2N(C)C(=O)c1cc2c(cc1F)nc(N)c1cncn12` [Ff-506, (S)-4-amino-N-(6-ethynyl-2,3-dihydrobenzofuran-3-yl)-7-fluoro-N-methylimidazo[1,5-a]quinoxaline-8-carboxamide] was tested. Which CC50 did it give?
Answer: Its CC50 is under 100 nM.

From patent publication US12448388B2, “PRMT5 inhibitors and uses thereof” (Gilead Sciences, Inc., priority 2023, dated 2025)
